Consider 20 compounds from paper PMC6008491, “Discovery of a novel allosteric inhibitor scaffold for polyadenosine-diphosphate-ribose polymerase 14 (PARP14) macrodomain 2” (Bioorganic & Medicinal Chemistry, 2018).

Where two headings read alike, the source gives them in different places. Some results are limits rather than exact numbers.

What is called IC50 is the concentration needed to halve the response being measured.

For this assay, the target named is T1, PARP14 MD2 (Homo sapiens, UniProt Q460N5).
T1 sequence (Q460N5 1003-1190 limits assumed): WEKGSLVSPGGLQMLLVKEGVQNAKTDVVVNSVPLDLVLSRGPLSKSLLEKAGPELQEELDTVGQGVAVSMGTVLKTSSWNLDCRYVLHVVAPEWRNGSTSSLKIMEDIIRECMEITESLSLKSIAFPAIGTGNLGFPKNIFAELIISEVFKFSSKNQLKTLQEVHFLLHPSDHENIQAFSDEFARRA
Kind of assay: AlphaScreen competitive binding assay, displacement of ADP-ribose peptide from PARP14 MD2. Also noted: PARP14 MD2 (second MD of PARP14). From the text:
Compounds were profiled for binding activity with PARP14 MD2 through a competitive (AlphaScreen™) binding assay measuring the displacement of ADP-ribose peptide from PARP14 MD2.[11a]

The mark [1] stands for this setting: Table 1, AlphaScreen, PARP14 MD2, read-out: IC50.
Where [2] appears, read: Table 2, AlphaScreen, PARP14 MD2, read-out: IC50.
Where [3] appears, read: text and figures, read-out: PARP14 MD2 IC50.

As to `CCN(C(C)=O)c1ccccc1-c1cccc2c1[nH]c1ccccc12` [compound 54, N-[2-(9H-Carbazol-1-yl)phenyl]-N-ethylacetamide], the half-maximal inhibitory concentration (IC50) under setting [1] was more than 50 µM.
For the compound `Cc1ccc(CC(=O)Nc2ccccc2-c2cccc3c2[nH]c2ccccc23)cc1` [compound 92, N-(2-(9H-Carbazol-1-yl)phenyl)-2-(p-tolyl)acetamide], the concentration for half-maximal inhibition (IC50) under setting [2] was 8.7 ± 1.2 µM.
On the same count and under the same terms, to `N#Cc1cccc(CC(=O)Nc2ccccc2-c2cccc3c2[nH]c2ccccc23)c1` [compound 107, N-(2-(9H-Carbazol-1-yl)phenyl)-2-(3-cyanophenyl)acetamide] belongs 2.1 ± 0.1 µM; to `O=S(=O)(Cc1ccc(C(F)(F)F)cc1)Nc1ccccc1-c1cccc2c1[nH]c1ccccc12` [compound 97, N-(2-(9H-Carbazol-1-yl)phenyl)-1-(4-(trifluoromethyl)phenyl)methanesulfonamide], 8.1 ± 0.7 µM.
Still for that read-out and setting: to `O=C(Cc1cccc(F)c1)Nc1ccccc1-c1cccc2c1[nH]c1ccccc12` [compound 104, N-(2-(9H-Carbazol-1-yl)phenyl)-2-(3-fluorophenyl)acetamide] belongs 4.2 ± 0.3 µM; to `O=C(Cc1ccc(Cl)cc1)Nc1ccccc1-c1cccc2c1[nH]c1ccccc12` [compound 96, N-(2-(9H-Carbazol-1-yl)phenyl)-2-(4-chlorophenyl)acetamide], 6.2 ± 0.6 µM.
In the case of `CCNc1ccccc1-c1cccc2c1[nH]c1ccccc12` [compound 53, 2-(9H-Carbazol-1-yl)-N-ethylaniline], under setting [1], the concentration for half-maximal inhibition (IC50) was more than 50 µM.
Turning to `CC(=O)Nc1ccccc1-c1cn2c3ccccc3c3ccnc(c1=O)c32` [compound 19], under setting [3], the IC50 is more than 50 µM.
In the case of `Cc1cccc(N)c1-c1cccc2c1[nH]c1ccccc12` [compound 61, 2-(9H-Carbazol-1-yl)-3-methylaniline], the 50% inhibitory concentration (IC50) under setting [1] is more than 50 µM.
In the case of `O=C(Cc1ccc(Cl)c(Cl)c1)Nc1ccccc1-c1cccc2c1[nH]c1ccccc12` [compound 102, N-(2-(9H-Carbazol-1-yl)phenyl)-2-(3,4-dichlorophenyl)acetamide], the half-maximal inhibitory concentration (IC50) under setting [2] was 6.3 ± 0.6 µM.
Consider `COc1ccc(C(=O)Nc2ccccc2-c2cccc3c2[nH]c2ccccc23)cc1` [compound 82, N-(2-(9H-Carbazol-1-yl)phenyl)-4-methoxybenzamide], for which, under setting [1], the half-maximal inhibitory concentration (IC50) was 9 ± 1.4 µM.
For `COc1ccc(CC(=O)Nc2ccccc2-c2cccc3c2[nH]c2ccccc23)cc1` [compound 94, N-(2-(9H-Carbazol-1-yl)phenyl)-2-(4-methoxyphenyl)acetamide], under setting [2], the IC50 was 6.2 ± 0.6 µM.
As to `CCC(=O)Nc1ccccc1-c1cccc2c1[nH]c1ccccc12` [compound 66, N-(2-(9H-carbazol-1-yl)phenyl)propionamide], under setting [1], the IC50 was determined as 1 ± 0.03 µM.
For the compound `CC(=O)Nc1ccccc1-c1cccc2c3ccccc3n(Cc3ccccc3)c12` [compound 25, N-[2-(9-Benzyl-9H-carbazol-1-yl)phenyl]acetamide], the concentration for half-maximal inhibition (IC50) under setting [3] was more than 50 µM.
Still for that read-out and setting: to `CC(=O)Nc1ccccc1-c1nccc2c1[nH]c1ccccc12` [compound 18] belongs 30 µM.
Consider `O=C(Nc1ccccc1-c1cccc2c1[nH]c1ccccc12)C1CCCCC1` [compound 75, N-(2-(9H-carbazol-1-yl)phenyl)cyclohexanecarboxamide], for which the 50% inhibitory concentration (IC50) under setting [1] was more than 50 µM.
Regarding `Nc1ccc(C(F)(F)F)cc1-c1cccc2c1[nH]c1ccccc12` [compound 60, 2-(9H-Carbazol-1-yl)-4-(trifluoromethyl)aniline], under setting [1], the half-inhibitory concentration (IC50) is more than 50 µM.
`CC(=O)Nc1ccccc1-c1cccc2c1sc1ccccc12` [compound 27, N-[2-(Dibenzothiophen-4-yl)phenyl]acetamide]: under setting [3], the half-inhibitory concentration (IC50) was found to be 2.5 µM.
With `COc1ccccc1C(=O)Nc1ccccc1-c1cccc2c1[nH]c1ccccc12` [compound 80, N-(2-(9H-Carbazol-1-yl)phenyl)-2-methoxybenzamide], under setting [1], the IC50 is more than 50 µM.
As to `CC(Nc1ccccc1-c1cccc2c1[nH]c1ccccc12)C(F)(F)F` (racemic) [compound 51, (±)-2-(9H-Carbazol-1-yl)-N-(1,1,1-trifluoropropan-2-yl)aniline], the “inhibition of PARP14 MD2 (in words)” value is on record as “complete loss of activity”.
